# Source: patent US12421193B2, “GPR52 modulators and methods of use” (Neurocrine Biosciences, Inc., priority 2020, dated 2025)
# Where a name gives a salt, the structure may show the parent alone.
# Molecular target: T1, recombinant human GPR52 (Homo sapiens, UniProt Q9Y2T5)
# T1 construct: expressed in transfected cells
# Assay: TR-FRET cAMP assay (LANCE Ultra cAMP Kit), GPR52 activity
# Assay type: cell-based
# Settings: Flp-In-CHO cells stably expressing recombinant human GPR52; cAMP production, normalized to the positive control
# Description: TR-FRET cAMP assays were performed using commercially available assay kits (LANCE™ Ultra cAMP Kit). Controls and compounds were solubilized in DMSO using ½ log dilution to generate duplicate 10-point dose response curves in 384-well polypropylene compound plates. Sixty nanoliters of the diluted compounds were transferred into 384-well NBS assay plates and further diluted to 1× with the addition of 2000 cells per well. Flp-In™—CHO cells that stably express recombinant human GPR52.
# Cells were harvested with cell stripper and resuspended in Stimulation Buffer (5 mM HEPES, 0.1% bovine serum albumin (BSA), 0.5 mM IBMX, pH 7.4). After thirty minutes incubation at room temperature, detection reagents were added to each well. Plates were then incubated for 30 minutes at room temperature. The LANCE™ Ultra cAMP assay uses time-resolved fluorescence resonance energy transfer (TR-FRET) to detect cAMVP production; this signal was quantified using a Pherastar multi-mode plate reader.
# Dose-response curves were generated from the fluorescence counts normalized to the positive control. E EC50 values were obtained using a nonlinear regression curve-fitting program.
# T1 sequence (Q9Y2T5 whole entry): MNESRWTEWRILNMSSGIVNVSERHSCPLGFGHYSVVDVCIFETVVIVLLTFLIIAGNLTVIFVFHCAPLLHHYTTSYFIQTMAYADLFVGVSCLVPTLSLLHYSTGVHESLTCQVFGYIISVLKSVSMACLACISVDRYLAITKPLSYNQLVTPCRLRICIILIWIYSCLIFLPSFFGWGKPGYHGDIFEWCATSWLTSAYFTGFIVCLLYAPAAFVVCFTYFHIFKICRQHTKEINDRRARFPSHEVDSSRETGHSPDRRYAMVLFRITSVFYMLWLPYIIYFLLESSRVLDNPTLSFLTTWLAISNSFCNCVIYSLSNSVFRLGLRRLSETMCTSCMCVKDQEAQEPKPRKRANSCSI
row,Compound,EC50 [nM]
1,"Cc1cc(-c2cc(COc3ccc(C#N)c(F)c3)ccn2)ccc1C(=O)NCCO [Example 79, 4-[4-(4-cyano-3-fluorophenoxymethyl)pyridin-2-yl]-N-(2-hydroxyethyl)-2-methylbenzamide]",101 to 1000
2,"Cc1cc(-c2cc(COc3ccc(C#N)c(F)c3)ccn2)ccc1C(=O)NCCN(C)C [Example 80, 4-[4-(4-cyano-3-fluorophenoxymethyl)pyridin-2-yl]-N-[2-(dimethylamino)ethyl]-2-methylbenzamide]",< 25
3,"Cc1cc(-c2ccnc(COc3ccc(C(F)(F)F)cc3)c2)ccc1C(N)=O [Example 81, 4-{2-[4-(trifluoromethyl)phenoxymethyl]pyridin-4-yl}-2-methylbenzamide hydrochloride]",< 25
4,"Cc1cc(-c2ccnc(COc3ccc(C#N)c(F)c3)c2)ccc1C(N)=O [Example 82, 4-[2-(4-cyano-3-fluorophenoxymethyl)pyridin-4-yl]-2-methylbenzamide]",25 to 100
5,"Cc1cc(-c2ccnc(COc3cc(F)c(F)c(F)c3)c2)ccc1C(N)=O [Example 83, 4-[2-(3,4,5-trifluorophenoxymethyl)pyridin-4-yl]-2-methylbenzamide]",101 to 1000
6,"Cc1cc(-c2ccnc(COc3ccc(C#N)c(F)c3F)c2)ccc1C(N)=O [Example 84, 4-[2-(4-cyano-2,3-difluorophenoxymethyl)pyridin-4-yl]-2-methylbenzamide]",101 to 1000
7,"Cc1cc(-c2ccnc(COc3cc(F)cc(F)c3)c2)ccc1C(N)=O [Example 85, 4-[2-(3,5-difluorophenoxymethyl)pyridin-4-yl]-2-methylbenzamide]",101 to 1000
8,"CC(=O)c1ccc(OCc2cc(-c3ccc(C(N)=O)c(C)c3)ccn2)cc1 [Example 86, 4-[2-(4-acetylphenoxymethyl)pyridin-4-yl]-2-methylbenzamide hydrochloride]",< 25
9,"Cc1cc(-c2ccnc(COc3ccc4c(cnn4C)c3)c2)ccc1C(N)=O [Example 87, 4-(2-{[(1-methyl-1H-indazol-5-yl)oxy]methyl}pyridin-4-yl)-2-methyl-benzamide]",101 to 1000
10,"Cc1cc(-c2ccnc(COc3ccc4c(c3)OCC4)c2)ccc1C(N)=O [Example 88, 4-{2-[(2,3-dihydro-1-benzofuran-6-yloxy)methyl]pyridin-4-yl}-2-methylbenzamide]",< 25
11,"Cc1ccc(OCc2cncc(-c3ccc(C(N)=O)c(C)c3)c2)cc1F [Example 89, 4-[5-(3-fluoro-4-methylphenoxymethyl)pyridin-3-yl]-2-methylbenzamide]",25 to 100
12,"Cc1cc(-c2cncc(COc3ccc(C(F)(F)F)cc3)c2)ccc1C(N)=O [Example 90, 4-{5-[4-(trifluoromethyl)phenoxymethyl]pyridin-3-yl}-2-methylbenzamide]",25 to 100
13,"Cc1cc(-c2cncc(COc3ccc(C#N)c(F)c3)c2)ccc1C(N)=O [Example 91, 4-[5-(4-cyano-3-fluorophenoxymethyl)pyridin-3-yl]-2-methylbenzamide]",> 1000
14,"Cc1cc(-c2cncc(COc3cc(F)cc(C#N)c3)c2)ccc1C(N)=O [Example 92, 4-[5-(3-cyano-5-fluorophenoxymethyl)pyridin-3-yl]-2-methylbenzamide]",> 1000
15,"Cc1cc(-c2cncc(COc3cc(F)cc(F)c3)c2)ccc1C(N)=O [Example 93, 4-[5-(3,5-difluorophenoxymethyl)pyridin-3-yl]-2-methylbenzamide]",101 to 1000
16,"COc1cc(OCc2cncc(-c3ccc(C(N)=O)c(C)c3)c2)ccc1C#N [Example 94, 4-[5-(4-cyano-3-methoxyphenoxymethyl)pyridin-3-yl]-2-methylbenzamide]",101 to 1000
17,"Cc1cc(-c2cncc(COc3ccc4cnn(C)c4c3)c2)ccc1C(N)=O [Example 95, 4-(5-{[(1-methyl-1H-indazol-6-yl)oxy]methyl}pyridin-3-yl)-2-methylbenzamide]",> 1000
18,"COc1ccc(OCc2cncc(-c3ccc(C(N)=O)c(C)c3)c2)cc1OC [Example 96, 4-[5-(3,4-dimethoxyphenoxymethyl)pyridin-3-yl]-2-methylbenzamide]",> 1000
19,"Cc1cc(-c2cncc(COc3ccc(F)cc3)c2)ccc1C(N)=O [Example 97, 4-[5-(4-fluorophenoxymethyl)pyridin-3-yl]-2-methylbenzamide]",> 1000
20,"COc1ccc(OCc2cncc(-c3ccc(C(N)=O)c(C)c3)c2)cc1 [Example 98, 4-[5-(4-methoxyphenoxymethyl)pyridin-3-yl]-2-methylbenzamide]",25 to 100
21,"COc1ccc(OCc2cncc(-c3ccc(C(N)=O)c(C)c3)c2)c(Cl)c1 [Example 99, 4-[5-(2-chloro-4-methoxyphenoxymethyl)pyridin-3-yl]-2-methylbenzamide]",> 1000
22,"Cc1cc(-c2cncc(COc3cc(F)c(F)c(F)c3)c2)ccc1C(N)=O [Example 100, 4-[5-(3,4,5-trifluorophenoxymethyl)pyridin-3-yl]2-methylbenzamide]",101 to 1000
23,"COc1cc(OCc2cncc(-c3ccc(C(N)=O)c(C)c3)c2)ccc1C(F)(F)F [Example 101, 4-{5-[3-methoxy-4-(trifluoromethyl)phenoxymethyl]pyridin-3-yl}-2-methylbenzamide]",101 to 1000
24,"Cc1cc(-c2cccc(COc3cccc(C(F)(F)F)c3)n2)ccc1C(N)=O [Example 102, 4-{6-[3-(trifluoromethyl)phenoxymethyl]pyridin-2-yl}-2-methylbenzamide]",> 1000
25,"Cc1cc(-c2ccnc(COc3ccc(C#N)c(F)c3)n2)ccc1C(N)=O [Example 103, 4-[2-(4-cyano-3-fluorophenoxymethyl)pyrimidin-4-yl]-2-methylbenzamide]",101 to 1000
26,"Cc1cc(-c2cc(COC3CCCCC3)ccn2)ccc1C(N)=O [Example 104, 4-{4-[(cyclohexyloxy)methyl]pyridin-2-yl}-2-methylbenzamide]",101 to 1000
